Read-outs that look alike come from different tables or passages of the source.
Key:
Format in all cases: biochemical
ABHD6 = ABHD6 (Mus musculus (Mouse), UniProt Q8R2Y0); experiment: In vitro competitive activity-based protein profiling (mouse brain membrane fraction or cell lysates), ABHD6 band; details: for inhibition at 1 µM: read-out: ABHD6 % Inh 1 μM (mouse); for IC50: competitive ABPP
Experimental: (§1) In Vitro Competitive Activity-Based Protein Profiling.
(§2) Proteomes (mouse brain membrane fraction or cell lysates) (50 μL, 1.0 mg/mL total protein concentration) were preincubated with varying concentrations of inhibitors at 37° C. After 30 min, FP—Rh (1.0 μL, 50 μM in DMSO) was added and the mixture was incubated for another 30 min at 37° C. Reactions were quenched with SDS loading buffer (50 μL-4×) and run on SDS-PAGE. Following gel imaging, serine hydrolase activity was determined by measuring fluorescent intensity of gel bands corresponding to MAGL, ABHD6 and FAAH using ImageJ 1.43u software.

FAAH = FAAH (Mus musculus (Mouse), UniProt O08914); experiment: In vitro competitive activity-based protein profiling (mouse brain membrane fraction or cell lysates), FAAH band; details: for inhibition at 1 µM: read-out: FAAH % Inh 1 μM (mouse); for IC50: competitive ABPP
Experimental: as §1, §2

MAGL = MAGL (Mus musculus (Mouse), UniProt O35678); experiment: In vitro competitive activity-based protein profiling (mouse brain membrane fraction or cell lysates), MAGL band; details: mouse proteome; for inhibition at 1 µM: read-out: MAGL % Inh 1 μM (mouse); for IC50: competitive ABPP
Experimental: as §1
Proteomes (mouse brain membrane fraction or cell lysates) (50 μL, 1.0 mg/mL total protein concentration) were preincubated with varying concentrations of inhibitors at 37° C. After 30 min, FP—Rh (1.0 μL, 50 μM in DMSO) was added and the mixture was incubated for another 30 min at 37° C. Reactions were quenched with SDS loading buffer (50 μL-4×) and run on SDS-PAGE.

FAAH, sequence (O08914 whole entry): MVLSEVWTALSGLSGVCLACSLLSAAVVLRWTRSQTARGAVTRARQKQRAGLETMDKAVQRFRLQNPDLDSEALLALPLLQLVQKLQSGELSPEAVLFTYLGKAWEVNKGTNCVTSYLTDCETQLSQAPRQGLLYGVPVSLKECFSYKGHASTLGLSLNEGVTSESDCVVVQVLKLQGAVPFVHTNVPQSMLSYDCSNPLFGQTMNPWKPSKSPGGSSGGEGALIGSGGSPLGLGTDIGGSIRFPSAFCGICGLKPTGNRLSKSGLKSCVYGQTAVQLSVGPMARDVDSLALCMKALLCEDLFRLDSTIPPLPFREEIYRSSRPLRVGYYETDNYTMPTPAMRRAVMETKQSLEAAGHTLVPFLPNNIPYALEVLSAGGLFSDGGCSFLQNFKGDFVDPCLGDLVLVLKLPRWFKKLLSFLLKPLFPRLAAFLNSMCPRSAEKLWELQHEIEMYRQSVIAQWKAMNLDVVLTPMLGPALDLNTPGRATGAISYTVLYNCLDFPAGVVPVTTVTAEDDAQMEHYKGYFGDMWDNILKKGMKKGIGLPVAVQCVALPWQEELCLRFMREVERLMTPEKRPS
MAGL, sequence (O35678 whole entry): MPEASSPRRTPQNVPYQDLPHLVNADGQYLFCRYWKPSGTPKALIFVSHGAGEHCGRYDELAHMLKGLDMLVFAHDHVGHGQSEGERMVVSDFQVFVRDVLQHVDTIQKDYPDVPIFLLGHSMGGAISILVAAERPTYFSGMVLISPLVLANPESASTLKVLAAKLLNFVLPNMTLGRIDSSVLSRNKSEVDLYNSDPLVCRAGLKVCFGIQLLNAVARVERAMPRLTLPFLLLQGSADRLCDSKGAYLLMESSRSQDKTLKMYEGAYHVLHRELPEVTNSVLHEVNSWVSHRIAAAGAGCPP
ABHD6, sequence (Q8R2Y0 whole entry): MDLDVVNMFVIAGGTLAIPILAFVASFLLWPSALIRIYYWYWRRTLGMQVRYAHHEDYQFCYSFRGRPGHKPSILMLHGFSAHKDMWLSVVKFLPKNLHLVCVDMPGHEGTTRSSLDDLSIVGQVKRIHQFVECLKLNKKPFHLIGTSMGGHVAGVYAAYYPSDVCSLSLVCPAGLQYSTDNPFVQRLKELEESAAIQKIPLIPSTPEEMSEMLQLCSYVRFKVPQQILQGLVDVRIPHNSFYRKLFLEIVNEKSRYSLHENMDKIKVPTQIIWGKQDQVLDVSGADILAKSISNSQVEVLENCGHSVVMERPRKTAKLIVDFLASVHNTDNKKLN

COc1ccc(CN2CCCC23CCN(C(=O)OC(C(F)(F)F)C(F)(F)F)CC3)cc1 [Example 1, 1,1,1,3,3,3-Hexafluoropropan-2-yl 1-(4-methoxybenzyl)-1,8-diazaspiro[4.5]decane-8-carboxylate]
inhibition at 1 µM (ABHD6; mouse proteome): < 25% | IC50 (ABHD6; mouse proteome): > 1 µM | inhibition at 1 µM (FAAH; mouse proteome): < 25% | IC50 (FAAH; mouse proteome): > 1 µM | inhibition at 1 µM (MAGL): > 75%

COc1cccc(CN2CCCC23CCN(C(=O)OC(C(F)(F)F)C(F)(F)F)CC3)c1 [Example 2, 1,1,1,3,3,3-Hexafluoropropan-2-yl 1-(3-methoxybenzyl)-1,8-diazaspiro[4.5]decane-8-carboxylate]
inhibition at 1 µM (ABHD6; mouse proteome): < 25% | IC50 (ABHD6; mouse proteome): > 1 µM | inhibition at 1 µM (FAAH; mouse proteome): < 25% | IC50 (FAAH; mouse proteome): > 1 µM | inhibition at 1 µM (MAGL): > 75% | IC50 (MAGL): 0.1 to 1 µM

COc1ccccc1CN1CCCC12CCN(C(=O)OC(C(F)(F)F)C(F)(F)F)CC2 [Example 3, 1,1,1,3,3,3-Hexafluoropropan-2-yl 1-(2-methoxybenzyl)-1,8-diazaspiro[4.5]decane-8-carboxylate]
inhibition at 1 µM (ABHD6; mouse proteome): < 25% | IC50 (ABHD6; mouse proteome): > 1 µM | inhibition at 1 µM (FAAH; mouse proteome): < 25% | IC50 (FAAH; mouse proteome): > 1 µM | inhibition at 1 µM (MAGL): > 75% | IC50 (MAGL): 0.1 to 1 µM

CCOc1ccccc1CN1CCCC12CCN(C(=O)OC(C(F)(F)F)C(F)(F)F)CC2 [Example 6, 1,1,1,3,3,3-Hexafluoropropan-2-yl 1-(2-ethoxybenzyl)-1,8-diazaspiro[4.5]decane-8-carboxylate]
IC50 (ABHD6; mouse proteome): > 1 µM | IC50 (FAAH; mouse proteome): > 1 µM | IC50 (MAGL): 0.1 to 1 µM

O=C(OC(C(F)(F)F)C(F)(F)F)N1CCC2(CCCN2Cc2cccc(OCCN3CCCCC3)c2)CC1 [Example 11, 1,1,1,3,3,3-Hexafluoropropan-2-yl 1-(3-(2-(piperidin-1-yl)ethoxy)benzyl)-1,8-diazaspiro[4.5]decane-8-carboxylate]
inhibition at 1 µM (ABHD6; mouse proteome): < 25% | IC50 (ABHD6; mouse proteome): > 1 µM | inhibition at 1 µM (FAAH; mouse proteome): < 25% | IC50 (FAAH; mouse proteome): > 1 µM | inhibition at 1 µM (MAGL): > 75% | IC50 (MAGL): 0.1 to 1 µM

O=C(OC(C(F)(F)F)C(F)(F)F)N1CCC2(CCCN2Cc2cccc(OCCN3CCCC3)c2)CC1 [Example 12, 1,1,1,3,3,3-Hexafluoropropan-2-yl 1-(3-(2-(pyrrolidin-1-yl)ethoxy)benzyl)-1,8-diazaspiro[4.5]decane-8-carboxylate]
inhibition at 1 µM (ABHD6; mouse proteome): < 25% | IC50 (ABHD6; mouse proteome): > 1 µM | inhibition at 1 µM (FAAH; mouse proteome): < 25% | IC50 (FAAH; mouse proteome): > 1 µM | inhibition at 1 µM (MAGL): > 75% | IC50 (MAGL): 0.1 to 1 µM

O=C(OC(C(F)(F)F)C(F)(F)F)N1CCC2(CCCN2Cc2cccc(OCCN3CCOCC3)c2)CC1 [Example 13, 1,1,1,3,3,3-Hexafluoropropan-2-yl 1-(3-(2-morpholinoethoxy)benzyl)-1,8-diazaspiro[4.5]decane-8-carboxylate]
inhibition at 1 µM (ABHD6; mouse proteome): < 25% | IC50 (ABHD6; mouse proteome): > 1 µM | inhibition at 1 µM (FAAH; mouse proteome): < 25% | IC50 (FAAH; mouse proteome): > 1 µM | inhibition at 1 µM (MAGL): > 75% | IC50 (MAGL): 0.1 to 1 µM

O=C(OC(C(F)(F)F)C(F)(F)F)N1CCC2(CCCN2Cc2ccc(OCCN3CCOCC3)cc2)CC1 [Example 14, 1,1,1,3,3,3-Hexafluoropropan-2-yl 1-(4-(2-morpholinoethoxy)benzyl)-1,8-diazaspiro[4.5]decane-8-carboxylate]
inhibition at 1 µM (ABHD6; mouse proteome): < 25% | inhibition at 1 µM (FAAH; mouse proteome): < 25% | inhibition at 1 µM (MAGL): > 75%

O=C(OC(C(F)(F)F)C(F)(F)F)N1CCC2(CCCN2Cc2ccc(OCCN3CCCCC3)c(Cl)c2)CC1 [Example 15, 1,1,1,3,3,3-Hexafluoropropan-2-yl 1-(3-chloro-4-(2-(piperidin-1-yl)ethoxy)benzyl)-1,8-diazaspiro[4.5]decane-8-carboxylate]
inhibition at 1 µM (ABHD6; mouse proteome): < 25% | IC50 (ABHD6; mouse proteome): > 1 µM | inhibition at 1 µM (FAAH; mouse proteome): < 25% | IC50 (FAAH; mouse proteome): > 1 µM | inhibition at 1 µM (MAGL): > 75% | IC50 (MAGL): 0.1 to 1 µM

O=C(OC(C(F)(F)F)C(F)(F)F)N1CCC2(CCCN2Cc2cc(Cl)cc(N3CC4COCC4C3)c2)CC1 (centres unmarked) [Example 38, 1,1,1,3,3,3-Hexafluoropropan-2-yl 1-(3-chloro-5-(tetrahydro-1H-furo[3,4-c]pyrrol-5(3H)-yl)benzyl)-1,8-diazaspiro[4.5]decane-8-carboxylate]
inhibition at 1 µM (ABHD6; mouse proteome): < 25% | IC50 (ABHD6; mouse proteome): > 1 µM | inhibition at 1 µM (FAAH; mouse proteome): 25 to 75% | IC50 (FAAH; mouse proteome): > 1 µM | inhibition at 1 µM (MAGL): > 75% | IC50 (MAGL): < 0.1 µM

O=C(OC(C(F)(F)F)C(F)(F)F)N1CCC2(CCCN2Cc2cc(Cl)cc(N3CCC(F)CC3)c2)CC1 [Example 39, 1,1,1,3,3,3-Hexafluoropropan-2-yl 1-(3-chloro-5-(4-fluoropiperidin-1-yl)benzyl)-1,8-diazaspiro[4.5]decane-8-carboxylate]
inhibition at 1 µM (ABHD6; mouse proteome): < 25% | IC50 (ABHD6; mouse proteome): > 1 µM | inhibition at 1 µM (FAAH; mouse proteome): < 25% | IC50 (FAAH; mouse proteome): > 1 µM | inhibition at 1 µM (MAGL): > 75% | IC50 (MAGL): < 0.1 µM

CS(=O)(=O)N1CCN(c2cc(Cl)cc(CN3CCCC34CCN(C(=O)OC(C(F)(F)F)C(F)(F)F)CC4)c2)CC1 [Example 40, 1,1,1,3,3,3-Hexafluoropropan-2-yl 1-(3-chloro-5-(4-(methylsulfonyl)piperazin-1-yl)benzyl)-1,8-diazaspiro[4.5]decane-8-carboxylate]
inhibition at 1 µM (ABHD6; mouse proteome): < 25% | IC50 (ABHD6; mouse proteome): > 1 µM | inhibition at 1 µM (FAAH; mouse proteome): < 25% | IC50 (FAAH; mouse proteome): > 1 µM | inhibition at 1 µM (MAGL): > 75% | IC50 (MAGL): < 0.1 µM

O=C(OC(C(F)(F)F)C(F)(F)F)N1CCC2(CCCN2Cc2cc(N3CCN(C4CC4)CC3)cc(C(F)(F)F)c2)CC1 [Example 41, 1,1,1,3,3,3-Hexafluoropropan-2-yl 1-(3-(4-cyclopropylpiperazin-1-yl)-5-(trifluoromethyl)benzyl)-1,8-diazaspiro[4.5]decane-8-carboxylate]
inhibition at 1 µM (ABHD6; mouse proteome): < 25% | IC50 (ABHD6; mouse proteome): > 1 µM | inhibition at 1 µM (FAAH; mouse proteome): < 25% | IC50 (FAAH; mouse proteome): > 1 µM | inhibition at 1 µM (MAGL): > 75% | IC50 (MAGL): < 0.1 µM

O=C(OC(C(F)(F)F)C(F)(F)F)N1CCC2(CCCN2Cc2cc(N3CCC(C(F)(F)F)CC3)cc(C(F)(F)F)c2)CC1 [Example 44, 1,1,1,3,3,3-Hexafluoropropan-2-yl 1-(3-(trifluoromethyl)-5-(4-(trifluoromethyl)piperidin-1-yl)benzyl)-1,8-diazaspiro[4.5]decane-8-carboxylate]
IC50 (ABHD6; mouse proteome): > 1 µM | IC50 (FAAH; mouse proteome): > 1 µM

COc1cc(Cl)ccc1CN1CC2(CCN(C(=O)OC(C(F)(F)F)C(F)(F)F)CC2)CC1(C)C [Example 49, 1,1,1,3,3,3-Hexafluoropropan-2-yl 2-(4-chloro-2-methoxybenzyl)-3,3-dimethyl-2,8-diazaspiro[4.5]decane-8-carboxylate]
inhibition at 1 µM (ABHD6; mouse proteome): < 25% | IC50 (ABHD6; mouse proteome): > 1 µM | inhibition at 1 µM (FAAH; mouse proteome): < 25% | IC50 (FAAH; mouse proteome): > 1 µM | inhibition at 1 µM (MAGL): > 75%

CC1(C)CC2(CCN(C(=O)OC(C(F)(F)F)C(F)(F)F)CC2)CN1Cc1ccc(C(F)(F)F)cc1N1CC2COCC2C1 (centres unmarked) [Example 55, 1,1,1,3,3,3-Hexafluoropropan-2-yl 3,3-dimethyl-2-(2-(tetrahydro-1H-furo[3,4-c]pyrrol-5(3H)-yl)-4-(trifluoromethyl)benzyl)-2,8-diazaspiro[4.5]decane-8-carboxylate]
inhibition at 1 µM (ABHD6; mouse proteome): < 25% | IC50 (ABHD6; mouse proteome): > 1 µM | inhibition at 1 µM (FAAH; mouse proteome): < 25% | IC50 (FAAH; mouse proteome): > 1 µM | inhibition at 1 µM (MAGL): > 75% | IC50 (MAGL): < 0.1 µM

O=C(O)C1CCN(c2cc(Cl)ccc2CN2CCC3(CCN(C(=O)OC(C(F)(F)F)C(F)(F)F)CC3)C2)CC1 [Example 118, 1-(5-chloro-2-((8-(((1,1,1,3,3,3-hexafluoropropan-2-yl)oxy)carbonyl)-2,8-diazaspiro[4.5]decan-2-yl)methyl)phenyl)piperidine-4-carboxylic acid]
inhibition at 1 µM (ABHD6; mouse proteome): < 25% | IC50 (ABHD6; mouse proteome): > 1 µM | inhibition at 1 µM (FAAH; mouse proteome): < 25% | IC50 (FAAH; mouse proteome): > 1 µM

O=C(O)c1ccc(CN2CCCC23CCN(C(=O)OC(C(F)(F)F)C(F)(F)F)CC3)cc1C(F)(F)F [Example 182, 4-((8-((1,1,1,3,3,3-Hexafluoropropan-2-yloxy)carbonyl)-1,8-diazaspiro[4.5]decan-1-yl)methyl)-2-(trifluoromethyl)benzoic acid]
inhibition at 1 µM (ABHD6; mouse proteome): < 25% | IC50 (ABHD6; mouse proteome): > 1 µM | inhibition at 1 µM (FAAH; mouse proteome): < 25% | IC50 (FAAH; mouse proteome): > 1 µM

O=C(O)C1CCN(c2cc(F)ccc2CN2CCC3(CCN(C(=O)OC(C(F)(F)F)C(F)(F)F)CC3)C2)CC1 [Example 237]
inhibition at 1 µM (ABHD6; mouse): 25 to 75% | inhibition at 1 µM (FAAH; mouse): < 25%

Cc1cc(CN2CCCC23CCN(C(=O)OC(C(F)(F)F)C(F)(F)F)CC3)cc(C(=O)O)c1 [Example 243]
inhibition at 1 µM (ABHD6; mouse): < 25% | inhibition at 1 µM (FAAH; mouse): < 25%

O=C(O)C1CCN(Cc2cc(CN3CCC4(CCN(C(=O)OC(C(F)(F)F)C(F)(F)F)CC4)C3)ccc2Cl)CC1 [Example 246]
inhibition at 1 µM (ABHD6; mouse): 25 to 75% | inhibition at 1 µM (FAAH; mouse): < 25%

O=C(O)c1cc(CN2CCC3(CCN(C(=O)OC(C(F)(F)F)C(F)(F)F)CC3)C2)ccc1C(F)(F)F [Example 255]
inhibition at 1 µM (ABHD6; mouse): 25 to 75% | inhibition at 1 µM (FAAH; mouse): < 25%

CC1(C(=O)O)CN(c2cc(C(F)(F)F)ccc2CN2CCCC23CCN(C(=O)OC(C(F)(F)F)C(F)(F)F)CC3)CCO1 (centres unmarked) [Example 260]
inhibition at 1 µM (ABHD6; mouse): < 25% | inhibition at 1 µM (FAAH; mouse): < 25%

O=C(O)c1cc(CN2CCCC23CCN(C(=O)OC(C(F)(F)F)C(F)(F)F)CC3)ccc1Cl [Example 266]
inhibition at 1 µM (ABHD6; mouse): < 25% | inhibition at 1 µM (FAAH; mouse): < 25%

— patent publication US10030020B2, “Spirocycle compounds and methods of making and using same” (Abide Therapeutics, Inc., priority 2016, dated 2018)
